Key:
PTPN2 (i.e., TC-PTP) = biological target: T1, PTPN2 (i.e., TC-PTP) (Homo sapiens, UniProt P17706); assay: Phosphatase activity assay (DiFMUP substrate), PTPN2; type: biochemical; conditions: compounds binned ≤1 uM or >1 uM
T1 sequence (P17706 1-415): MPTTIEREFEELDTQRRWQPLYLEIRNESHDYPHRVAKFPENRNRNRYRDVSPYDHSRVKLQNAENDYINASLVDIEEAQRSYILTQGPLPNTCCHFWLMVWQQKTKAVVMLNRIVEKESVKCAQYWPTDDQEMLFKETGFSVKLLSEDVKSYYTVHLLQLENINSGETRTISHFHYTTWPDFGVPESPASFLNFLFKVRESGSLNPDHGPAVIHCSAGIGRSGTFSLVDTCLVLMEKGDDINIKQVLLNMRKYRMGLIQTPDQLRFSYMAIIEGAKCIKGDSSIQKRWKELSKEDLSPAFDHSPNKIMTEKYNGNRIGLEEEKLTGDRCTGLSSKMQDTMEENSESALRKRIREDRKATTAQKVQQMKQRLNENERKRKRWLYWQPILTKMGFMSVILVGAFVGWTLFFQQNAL
Outline: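 Using a Km-level DiFMUP substrate and 0.025 ng/ul PTPN2, phosphatase activity is tracked by DiFMU emission at 450 nm over about 15–30 minutes. Initial rates at ten inhibitor concentrations give IC50 by four-parameter fitting.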

PTPN1 (i.e., PTP1B) = biological target: T2, PTPN1 (i.e., PTP1B) (Homo sapiens, UniProt P18031); assay: Phosphatase activity assay (DiFMUP substrate), PTP1B; type: biochemical; conditions: compounds binned ≤1 uM or >1 uM
T2 sequence (P18031 1-435): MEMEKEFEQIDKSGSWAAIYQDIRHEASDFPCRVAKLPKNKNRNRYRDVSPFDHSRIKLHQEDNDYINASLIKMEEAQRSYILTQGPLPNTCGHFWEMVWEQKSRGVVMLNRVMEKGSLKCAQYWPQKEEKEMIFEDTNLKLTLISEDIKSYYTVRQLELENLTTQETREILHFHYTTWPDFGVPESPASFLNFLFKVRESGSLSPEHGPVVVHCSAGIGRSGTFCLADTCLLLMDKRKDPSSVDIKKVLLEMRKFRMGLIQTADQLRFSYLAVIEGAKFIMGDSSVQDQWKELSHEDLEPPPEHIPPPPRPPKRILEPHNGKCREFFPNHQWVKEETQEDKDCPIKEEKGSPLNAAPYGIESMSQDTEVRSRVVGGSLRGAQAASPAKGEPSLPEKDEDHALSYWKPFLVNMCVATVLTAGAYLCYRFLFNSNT
Outline: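 Continuous fluorogenic readout of DiFMUP dephosphorylation at room temperature, substrate set at Km for each phosphatase (about 45 μM in the PTPN2 assay). The buffer contains 1 mM DTT and 0.001% Tween-20, pH 7.5.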

| Structure (SMILES) | IC50 (PTPN2 (i.e., TC-PTP)) [µM] | IC50 (PTPN1 (i.e., PTP1B)) [µM] |
| --- | --- | --- |
| CC(C)CCc1cc(-c2ccc(O)c(N3CC(=O)NS3(=O)=O)c2F)nn1C [Compound 380, 5-(2-fluoro-6-hydroxy-3-(5-isopentyl-1-methyl-1H-pyrazol-3-yl)phenyl)-1,2,5-thiadiazolidin-3-one 1,1-dioxide] | ≤ 1 | ≤ 1 |
| O=C1CN(c2c(O)ccc(-c3cc(C4CC4)n(CC4CCCN4)n3)c2F)S(=O)(=O)N1 (stereo not shown) [Compound 382, 5-(3-(5-cyclopropyl-1-(pyrrolidin-2-ylmethyl)-1H-pyrazol-3-yl)-2-fluoro-6-hydroxyphenyl)-1,2,5-thiadiazolidin-3-one 1,1-dioxide] | ≤ 1 | ≤ 1 |
| CO[C@H]1CC[C@@H](n2cc(-c3ccc(O)c(N4CC(=O)NS4(=O)=O)c3F)cn2)CC1 [Compound 383, 5-(2-fluoro-6-hydroxy-3-(1-((1s,4s)-4-methoxycyclohexyl)-1H-pyrazol-4-yl)phenyl)-1,2,5-thiadiazolidin-3-one 1,1-dioxide] | ≤ 1 | ≤ 1 |
| O=C1CN(c2c(O)ccc(-c3ccc(NS(=O)(=O)C4CC4)c(F)c3)c2F)S(=O)(=O)N1 [Compound 384, N-(3′-(1,1-dioxido-4-oxo-1,2,5-thiadiazolidin-2-yl)-2′,3-difluoro-4′-hydroxy-[1,1′-biphenyl]-4-yl)cyclopropanesulfonamide] | ≤ 1 | ≤ 1 |
| O=C1CN(c2c(O)ccc(-c3cn(CC4CCCCC4)nc3F)c2F)S(=O)(=O)N1 [Compound 385, 5-(3-(1-(cyclohexylmethyl)-3-fluoro-1H-pyrazol-4-yl)-2-fluoro-6-hydroxyphenyl)-1,2,5-thiadiazolidin-3-one 1,1-dioxide] | ≤ 1 | ≤ 1 |
| Cc1cnn(-c2ccc(O)c(N3CC(=O)NS3(=O)=O)c2F)c1 [Compound 386, 5-(2-fluoro-6-hydroxy-3-(4-methyl-1H-pyrazol-1-yl)phenyl)-1,2,5-thiadiazolidin-3-one 1,1-dioxide] | ≤ 1 | ≤ 1 |
| O=C1CN(c2c(O)ccc(-c3cnn(CC4(Cl)CCC4)c3)c2F)S(=O)(=O)N1 [Compound 387, 5-(3-(1-((1-chlorocyclobutyl)methyl)-1H-pyrazol-4-yl)-2-fluoro-6-hydroxyphenyl)-1,2,5-thiadiazolidin-3-one 1,1-dioxide] | ≤ 1 | ≤ 1 |
| COC1CCN(c2cc(-c3ccc(O)c(N4CC(=O)NS4(=O)=O)c3F)[nH]n2)C1 (stereo not shown) [Compound 388, 5-(2-fluoro-6-hydroxy-3-(3-(3-methoxypyrrolidin-1-yl)-1H-pyrazol-5-yl)phenyl)-1,2,5-thiadiazolidin-3-one 1,1-dioxide] | ≤ 1 | ≤ 1 |
| CC(C)CCc1cc(-c2ccc(O)c(N3CC(=O)NS3(=O)=O)c2F)[nH]n1 [Compound 389, 5-(2-fluoro-6-hydroxy-3-(3-isopentyl-1H-pyrazol-5-yl)phenyl)-1,2,5-thiadiazolidin-3-one 1,1-dioxide] | ≤ 1 | ≤ 1 |
| Cc1noc(C)c1Cn1ccc(-c2ccc(O)c(N3CC(=O)NS3(=O)=O)c2F)c1 [Compound 390, 5-(3-(1-((3,5-dimethylisoxazol-4-yl)methyl)-1H-pyrrol-3-yl)-2-fluoro-6-hydroxyphenyl)-1,2,5-thiadiazolidin-3-one 1,1-dioxide] | ≤ 1 | ≤ 1 |
| CC(C)CCn1cnc(-c2ccc(O)c(C3=CC(=O)NS3(=O)=O)c2F)c1 [Compound 391, 5-(2-fluoro-6-hydroxy-3-(1-isopentyl-1H-imidazol-4-yl)phenyl)isothiazol-3(2H)-one 1,1-dioxide] | ≤ 1 | ≤ 1 |
| Cn1cc(-c2ccc(O)c(N3CC(=O)NS3(=O)=O)c2F)cc1CCC1CC1 [Compound 392, 5-(3-(5-(2-cyclopropylethyl)-1-methyl-1H-pyrrol-3-yl)-2-fluoro-6-hydroxyphenyl)-1,2,5-thiadiazolidin-3-one 1,1-dioxide] | ≤ 1 | ≤ 1 |
| O=C1CN(c2c(O)ccc(C3=CCN(CC(F)(F)F)CC3)c2F)S(=O)(=O)N1 [Compound 393, 5-(2-fluoro-6-hydroxy-3-(1-(2,2,2-trifluoroethyl)-1,2,3,6-tetrahydropyridin-4-yl)phenyl)-1,2,5-thiadiazolidin-3-one 1,1-dioxide] | ≤ 1 | ≤ 1 |
| O=C1CN(c2c(O)ccc(-c3c[nH]c(C4CC4)c3)c2F)S(=O)(=O)N1 [Compound 394, 5-(3-(5-cyclopropyl-1H-pyrrol-3-yl)-2-fluoro-6-hydroxyphenyl)-1,2,5-thiadiazolidin-3-one 1,1-dioxide] | ≤ 1 | ≤ 1 |
| O=C1CN(c2c(O)ccc(-c3ccc(NC(=O)C4CC4)cc3)c2F)S(=O)(=O)N1 [Compound 395, N-(3′-(1,1-dioxido-4-oxo-1,2,5-thiadiazolidin-2-yl)-2′-fluoro-4′-hydroxy-[1,1′-biphenyl]-4-yl)cyclopropanecarboxamide] | ≤ 1 | ≤ 1 |
| O=C1CN(c2c(O)ccc(-c3cc(N4CCC5(CCN5)C4)n[nH]3)c2F)S(=O)(=O)N1 (stereo not shown) [Compound 396, 5-(3-(3-(1,6-diazaspiro[3.4]octan-6-yl)-1H-pyrazol-5-yl)-2-fluoro-6-hydroxyphenyl)-1,2,5-thiadiazolidin-3-one 1,1-dioxide] | ≤ 1 | ≤ 1 |
| CN(C)C1CCN(c2cc(-c3ccc(O)c(N4CC(=O)NS4(=O)=O)c3F)[nH]n2)C1 (stereo not shown) [Compound 397, 5-(3-(3-(3-(dimethylamino)pyrrolidin-1-yl)-1H-pyrazol-5-yl)-2-fluoro-6-hydroxyphenyl)-1,2,5-thiadiazolidin-3-one 1,1-dioxide] | ≤ 1 | ≤ 1 |
| O=C1CN(c2c(O)ccc(C3=CC(CO)NC3)c2F)S(=O)(=O)N1 (stereo not shown) [Compound 398, 5-(2-fluoro-6-hydroxy-3-(5-(hydroxymethyl)-2,5-dihydro-1H-pyrrol-3-yl)phenyl)-1,2,5-thiadiazolidin-3-one 1,1-dioxide] | ≤ 1 | ≤ 1 |
| COC(=O)C1C=C(c2ccc(O)c(N3CC(=O)NS3(=O)=O)c2F)CN1 (stereo not shown) [Compound 399, methyl 4-(3-(1,1-dioxido-4-oxo-1,2,5-thiadiazolidin-2-yl)-2-fluoro-4-hydroxyphenyl)-2,5-dihydro-1H-pyrrole-2-carboxylate] | ≤ 1 | ≤ 1 |
| O=C1C=C(c2c(O)ccc(-c3cc(C4CC4)n[nH]3)c2F)S(=O)(=O)N1 [Compound 400, 5-(3-(3-cyclopropyl-1H-pyrazol-5-yl)-2-fluoro-6-hydroxyphenyl)isothiazol-3(2H)-one 1,1-dioxide] | ≤ 1 | ≤ 1 |
| O=C1CN(c2c(O)ccc(-c3cc(-c4ccccc4)no3)c2F)S(=O)(=O)N1 [Compound 401, 5-(2-fluoro-6-hydroxy-3-(3-phenylisoxazol-5-yl)phenyl)-1,2,5-thiadiazolidin-3-one 1,1-dioxide] | ≤ 1 | ≤ 1 |
| O=C1CN(c2c(O)ccc(-c3cc(C4=CCOCC4)n[nH]3)c2F)S(=O)(=O)N1 [Compound 402, 5-(3-(3-(3,6-dihydro-2H-pyran-4-yl)-1H-pyrazol-5-yl)-2-fluoro-6-hydroxyphenyl)-1,2,5-thiadiazolidin-3-one 1,1-dioxide] | ≤ 1 | ≤ 1 |
| O=C1CN(c2c(O)ccc(-c3ccc(NC(=O)C4CC4(F)F)cc3)c2F)S(=O)(=O)N1 (stereo not shown) [Compound 403, N-(3′-(1,1-dioxido-4-oxo-1,2,5-thiadiazolidin-2-yl)-2′-fluoro-4′-hydroxy-[1,1′-biphenyl]-4-yl)-2,2-difluorocyclopropane-1-carboxamide] | ≤ 1 | ≤ 1 |
| O=C1CN(c2c(O)ccc(C3=CCN(S(=O)(=O)c4ccccc4)C3)c2F)S(=O)(=O)N1 [Compound 404, 5-(2-fluoro-6-hydroxy-3-(1-(phenylsulfonyl)-2,5-dihydro-1H-pyrrol-3-yl)phenyl)-1,2,5-thiadiazolidin-3-one 1,1-dioxide] | ≤ 1 | ≤ 1 |
| O=C1CN(c2c(O)ccc(C3=CCOCC3)c2F)S(=O)(=O)N1 [Compound 405, 5-(3-(3,6-dihydro-2H-pyran-4-yl)-2-fluoro-6-hydroxyphenyl)-1,2,5-thiadiazolidin-3-one 1,1-dioxide] | ≤ 1 | ≤ 1 |
| O=C1CN(c2c(O)ccc(-c3cnc(C4CC4)[nH]3)c2F)S(=O)(=O)N1 [Compound 406, 5-(3-(2-cyclopropyl-1H-imidazol-5-yl)-2-fluoro-6-hydroxyphenyl)-1,2,5-thiadiazolidin-3-one 1,1-dioxide] | ≤ 1 | ≤ 1 |

Reference: patent publication US20240398828A1, “HETERO-ATOM CONTAINING COMPOUNDS AND USES THEREOF” (Kumquat Biosciences Inc., priority 2021, published 2024)
